Data reported in patent US20240294499A1, “TARGETED PROTEIN DEGRADATION USING BIFUNCTIONAL COMPOUNDS THAT BIND UBIQUITIN LIGASE AND TARGET MCL-1 PROTEIN” (Captor Therapeutics S.A., priority 2021, published 2024).

How the values were obtained:
Assay type in all cases: cell-based
MCL-1 protein [1] = molecular target: T1, MCL-1 protein (Homo sapiens, UniProt Q07820); experiment: Dose-dependent MCL-1 protein degradation and induction of apoptosis in cancer cells, Western blot; design: endogenous in cells; host or cells: OPM-2, MV-4-11, DMS 114; details: for degradation of MCL-1 protein and apoptosis of OPM2 cells compared to dMCL1-2 and C3: FIG. 2 and FIG. 3
Experimental: The experiments were performed as described for the “OPM-2 cells: MCL-1 protein degradation, Western blot” and “DMS 114 cells: MCL-1 protein degradation, Western blot”.
In addition to MCL-1 and α-Tubulin, PARP and cleaved caspase-3 were detected to monitor apoptosis.
FIG. 2 presents the results of MCL-1 protein degradation and induction of apoptosis for the OPM-2 cells treated with 204 or 215 at 0.01, 0.1 or 1 μM concentration for 6 hours or 24 hours, as indicated.
FIG. 3A presents the results of MCL-1 protein degradation and induction of apoptosis for the OPM-2 cells treated with 204 and control compounds dMCL1-2 (Papatzimas et al., J. Med. Chem. 2019, 62, 11, 5522-5540) at 0.01, 0.03, 0.1, 0.3 or 1 μM concentration for 3 hours, 6 hours or 24 hours, as indicated.
FIG. 3B presents the results of MCL-1 protein degradation and induction of apoptosis for the MV-4-11 cells treated with 204 and control compounds C3 (Wang Z et al., J. Med. Chem. 2019, 62, 17, 8152-8163) at 0.1, 1 or 10 μM concentration for 24 hours, as indicated.
FIG. 3C presents the results of MCL-1 protein degradation and induction of apoptosis for the OPM-2 cells treated with 220, 268, 346 and control compounds dMCL1-2 at 0.03, 0.1, 0.3, 1 μM concentration for 6 hours, as indicated.
FIG. 3D presents the results of MCL-1 protein degradation and induction of apoptosis for the OPM-2 cells treated with 220, 342 at 0.1, 1, 10 μM concentration for 6 hours, as indicated.
FIG. 3E presents the results of MCL-1 protein degradation and induction of apoptosis for the DMS 114 cells treated with 204, 220, 268, 346 at 0.1, 1, 10 μM concentration for 6 hours, as indicated.

MCL-1 protein [2] = molecular target: T1, MCL-1 protein; experiment: DMS 114 cells: MCL-1 protein degradation, Western blot; design: endogenous in cells; details: DMS 114 cell line, 6 h treatment, 1 μM compound, vs DMSO
Experimental: The effect of various compounds of the invention on MCL-1 protein degradation in the DMS 114 cell line was investigated, using the degradation assay protocol below.
DMS 114 cells were maintained in Waymouth's MB 752/1 medium, supplemented with penicillin/streptomycin and 10% Fetal Bovine Serum (FBS).
(§1) Compound stocks were pre-diluted in DMSO and added directly to the cells growth medium (final DMSO concentration: 0.5%).
DMS 114 cells were detached, collected, centrifuged (250 rcf, 5 min), resuspended in growth medium containing 10% FBS and counted. Cell suspension was then adjusted to 0.25×10^6 cell/ml using growth medium containing 10% FBS. Afterwards, 0.5×10^6 cells were seeded on 6-well plates in 2 mL of medium per well. Plates were then place in the incubator at 37° C. until treatment. Next day, compounds in appropriate concentrations were added to the wells and the plates incubated for additional 6 or 24 hours. DMSO was used as control (final concentration 0.5%).
(§2) Following the treatment with the compounds, cells were washed on the plates, lysed with the lysis buffer (2% SDS, 50 mM Tris, pH 8.0, 100 U/ml Pierce Universal Nuclease for Cell Lysis, complete EDTA-free Protease Inhibitor Cocktail) and incubated on ice for 45 min. The amount of protein was determined via BCA assay, and the equal quantity of each sample was loaded on the precast gel for the protein separation. Following the electrophoresis and transfer to the membrane, the membrane was stained with Ponceau (0.1% (w/v) Ponceau in 5% acetic acid). After total protein detection, the stain was washed out using TBST. After the antibody staining for MCL-1, PARP, cleaved Caspase 3 and α-tubulin, the membranes were washed and signals developed.
(§3) Densitometric values for MCL-1 were normalized to total protein level (the Ponceau Staining). [%] of protein reduction is calculated in comparison to the cells treated with DMSO, which stand for 0%.
The results for the 6 h treatment with 1 μM compounds are shown in Table 10, using the following labels: • <50% for 0-49% of MCL-1 protein reduction, • ≥50% for 50-74% of MCL-1 protein reduction, • ≥75% for 75-100% of MCL-1 protein reduction.

MCL-1 protein [3] = molecular target: T1, MCL-1 protein; experiment: OPM-2 cells: MCL-1 protein degradation, Western blot; design: endogenous in cells; host or cells: OPM-2; details: OPM-2 cell line, 6 h treatment, 100 nM compound, vs DMSO
Description: The effect of various compounds of the invention and the reference compounds on MCL-1 protein degradation in the OPM-2 cell line was investigated, using the degradation assay protocol below.
OPM-2 cells were maintained in RPMI-1640 medium, supplemented with penicillin/streptomycin and 10% Fetal Bovine Serum (FBS). During the treatment, FBS concentration was reduced to 1%.
as §1
OPM-2 cells were collected, centrifuged (250 rcf, 5 min), resuspended in a growth medium containing 1% FBS and counted. The cell suspension was then adjusted to 1×10^6 cell/ml using a growth medium containing 1% FBS. Afterwards, 0.5×10^6 cells were seeded on 24-well plates in 0.5 mL of medium per well. Immediately after seeding cells, compounds in appropriate concentrations were added to the cell culture medium.
as §2, with “collected from” for “washed on”, “plates and suspended in a” for “plates, lysed with the”, “MCL-1” for “MCL-1, PARP, cleaved Caspase 3”
as §3
The results for the 6 h treatment with 100 nM compounds are shown in Table 9, using the following labels: • <30% for 0-29% of MCL-1 protein reduction, • ≥30% for 30-49% of MCL-1 protein reduction, • ≥50% for 50-100% of MCL-1 protein reduction.

T1 sequence (Q07820 whole entry): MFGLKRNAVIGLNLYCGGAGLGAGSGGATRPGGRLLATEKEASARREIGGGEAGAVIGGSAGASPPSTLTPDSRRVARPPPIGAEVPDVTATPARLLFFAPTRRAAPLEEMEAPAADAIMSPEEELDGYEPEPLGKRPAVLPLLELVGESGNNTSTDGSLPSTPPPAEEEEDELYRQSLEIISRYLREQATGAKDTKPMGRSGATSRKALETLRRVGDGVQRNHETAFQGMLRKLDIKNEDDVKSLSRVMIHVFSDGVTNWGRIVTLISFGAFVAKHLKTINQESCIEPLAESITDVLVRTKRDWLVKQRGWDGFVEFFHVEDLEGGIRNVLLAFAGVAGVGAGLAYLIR

With `Cc1nn(C)c(C)c1-c1c(Cl)ccc2c(CCCOc3cccc4cc(F)ccc34)c(C(=O)O)n(CCN3CCN(C(=O)Cn4c(C)nc5c(C(=O)NC6CCC(=O)NC6=O)cccc54)CC3)c12` (stereo not drawn) [Compound 268, 6-chloro-1-{2-[4-(2-{4-[(2,6-dioxopiperidin-3-yl)carbamoyl]-2-methyl-1H-1,3-benzodiazol-1-yl}acetyl)piperazin-1-yl]ethyl}-3-{3-[(6-fluoronaphthalen-1-yl)oxy]propyl}-7-(1,3,5-trimethyl-1H-pyrazol-4-yl)-1H-indole-2-carboxylic acid] the “degradation of MCL-1 protein and apoptosis of OPM2 cells compared to dMCL1-2 and C3” value (“degradation … compared to dMCL1-2 and C3” below) (MCL-1 protein [1]) was “improved potency”, the “Western blot, % of protein reduction” value (MCL-1 protein [2]) was at least 75% and the “Western blot, % of protein reduction” value (MCL-1 protein [3]) was at least 50%.
`Cc1nn2c(c1-c1c(Cl)ccc3c(CCCOc4cccc5cc(F)ccc45)c(C(=O)O)n(CCN4CCN(C(=O)COc5cccc6c5CN(C5CCC(=O)NC5=O)C6=O)CC4)c13)COCC2` (stereo not drawn) [Compound 346, 6-Chloro-1-(2-(4-(2-((2-(2,6-dioxopiperidin-3-yl)-1-oxoisoindolin-4-yl)oxy)acetyl)piperazin-1-yl)ethyl)-3-(3-((6-fluoronaphthalen-1-yl)oxy)propyl)-7-(2-methyl-6,7-dihydro-4H-pyrazolo[5,1-c][1,4]oxazin-3-yl)-1H-indole-2-carboxylic acid] was tested, and the “degradation … compared to dMCL1-2 and C3” value (MCL-1 protein [1]) was “improved potency”, the “Western blot, % of protein reduction” value (MCL-1 protein [2]) was at least 75% and the “Western blot, % of protein reduction” value (MCL-1 protein [3]) was at least 50%.
With `Cc1nn(C)c(C)c1-c1c(Cl)ccc2c(CCCOc3cccc4cc(F)ccc34)c(C(=O)O)n(CCN3CCN(C(=O)COc4cccc5c4CN(C4CCC(=O)NC4=O)C5=O)CC3)c12` (stereo not drawn) [Compound 220, 6-chloro-1-{2-[4-(2-{[2-(2,6-dioxopiperidin-3-yl)-1-oxo-2,3-dihydro-1H-isoindol-4-yl]oxy}acetyl)piperazin-1-yl]ethyl}-3-{3-[(6-fluoronaphthalen-1-yl)oxy]propyl}-7-(1,3,5-trimethyl-1H-pyrazol-4-yl)-1H-indole-2-carboxylic acid] the “degradation … compared to dMCL1-2 and C3” value (MCL-1 protein [1]) was “improved potency”, the “Western blot, % of protein reduction” value (MCL-1 protein [2]) was at least 75% and the “Western blot, % of protein reduction” value (MCL-1 protein [3]) was at least 50%.
`Cc1nn(C)c(C)c1-c1c(Cl)ccc2c(CCCOc3cccc4ccccc34)c(C(=O)O)n(CCN3CCN(C(=O)COc4cccc5c4C(=O)N(C4CCC(=O)NC4=O)C5=O)CC3)c12` (stereo not drawn) [Compound 204, 6-chloro-1-(2-(4-(2-((2-(2,6-dioxopiperidin-3-yl)-1,3-dioxoisoindolin-4-yl)oxy)acetyl)piperazin-1-yl)ethyl)-3-(3-(naphthalen-1-yloxy)propyl)-7-(1,3,5-trimethyl-1H-pyrazol-4-yl)-1H-indole-2-carboxylic acid] was tested, and the “degradation … compared to dMCL1-2 and C3” value (MCL-1 protein [1]) was “improved potency”, the “MCL-1 protein degradation and induction of apoptosis compared with control compounds” value (MCL-1 protein [1]; OPM-2 cells vs dMCL1-2, MV-4-11 cells vs C3 (FIG. 3A, 3B)) was “more potent” and the “Western blot, % of protein reduction” value (MCL-1 protein [2]) was at least 50%. For the same molecule, the “Western blot, % of protein reduction” value (MCL-1 protein [3]) was at least 50%.
With `Cc1nn(C)c(C)c1-c1c(F)ccc2c(CCCOc3cccc4cc(F)ccc34)c(C(=O)O)n(CCN3CCN(C(=O)COc4cccc5c4C(=O)N(C4CCC(=O)NC4=O)C5=O)CC3)c12` (stereo not drawn) [Compound 215, 1-{2-[4-(2-{[2-(2,6-dioxopiperidin-3-yl)-1,3-dioxo-2,3-dihydro-1H-isoindol-4-yl]oxy}acetyl)piperazin-1-yl]ethyl}-6-fluoro-3-{3-[(6-fluoronaphthalen-1-yl)oxy]propyl}-7-(1,3,5-trimethyl-1H-pyrazol-4-yl)-1H-indole-2-carboxylic acid] the “degradation … compared to dMCL1-2 and C3” value (MCL-1 protein [1]) was “improved potency” and the “Western blot, % of protein reduction” value (MCL-1 protein [3]) was at least 50%.
